Reference: patent publication US20260242352A1, “INHIBITION OF SHIP1 AS A THERAPEUTIC STRATEGY FOR THE TREATMENT OF ALZHEIMER'S DISEASE” (The Trustees of Indiana University, priority 2022, published 2026)

Each molecule was assayed against T1, HiBit-labeled full length SHIP1 protein (Homo sapiens, UniProt Q92835) (assay: Cellular thermal shift assay (SplitLuc CETSA), thermal shift format). Conditions: 40 μM compound for 60 min, HMC3/HiBit-INPP5D cells, 38-52° C. gradient; target engagement positive/negative.
T1 construct: thermal stability of a HiBit-labeled full length SHIP1 protein in intact cells; expressed in transfected cells; host or cells: HMC3 (stably transfected)
T1 sequence (Q92835 1-1189): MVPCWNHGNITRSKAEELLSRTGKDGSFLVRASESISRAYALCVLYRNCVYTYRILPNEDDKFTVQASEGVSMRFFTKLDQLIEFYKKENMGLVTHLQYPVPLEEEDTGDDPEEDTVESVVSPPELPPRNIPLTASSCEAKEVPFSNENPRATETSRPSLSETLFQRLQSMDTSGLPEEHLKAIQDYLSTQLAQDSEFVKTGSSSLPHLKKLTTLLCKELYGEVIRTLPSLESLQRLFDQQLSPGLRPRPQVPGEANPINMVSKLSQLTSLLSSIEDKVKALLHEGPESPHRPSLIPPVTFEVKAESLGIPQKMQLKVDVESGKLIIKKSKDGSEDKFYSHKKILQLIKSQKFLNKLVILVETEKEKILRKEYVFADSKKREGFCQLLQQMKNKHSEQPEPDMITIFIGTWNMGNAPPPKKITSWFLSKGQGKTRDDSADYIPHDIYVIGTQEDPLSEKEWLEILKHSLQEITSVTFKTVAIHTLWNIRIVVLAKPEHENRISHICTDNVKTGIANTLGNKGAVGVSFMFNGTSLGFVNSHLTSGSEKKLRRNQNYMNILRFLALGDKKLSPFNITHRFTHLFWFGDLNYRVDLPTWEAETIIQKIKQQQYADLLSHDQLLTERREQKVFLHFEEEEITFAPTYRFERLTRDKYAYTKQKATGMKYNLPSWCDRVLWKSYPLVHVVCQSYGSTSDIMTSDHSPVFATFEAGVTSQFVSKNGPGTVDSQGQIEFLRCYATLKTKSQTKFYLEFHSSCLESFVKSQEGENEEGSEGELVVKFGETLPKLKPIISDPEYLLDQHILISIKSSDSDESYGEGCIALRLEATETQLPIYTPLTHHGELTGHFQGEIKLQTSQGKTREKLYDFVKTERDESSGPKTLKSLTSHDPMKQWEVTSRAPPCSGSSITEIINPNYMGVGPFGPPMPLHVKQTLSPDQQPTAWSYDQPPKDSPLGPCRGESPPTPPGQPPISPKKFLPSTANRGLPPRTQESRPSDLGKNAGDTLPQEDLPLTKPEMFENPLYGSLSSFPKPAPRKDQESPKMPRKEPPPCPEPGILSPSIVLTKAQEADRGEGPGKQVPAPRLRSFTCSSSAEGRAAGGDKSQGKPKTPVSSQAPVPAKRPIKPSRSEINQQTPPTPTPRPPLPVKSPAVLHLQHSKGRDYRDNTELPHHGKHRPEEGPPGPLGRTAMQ
Assay type: cell-based
Set-up: key: Y = ΔTm difference of 40 μM compound treated cells from control is Tm > 3SD; N: otherwise negative
Protocol: Cellular thermal shift assay (CETSA). […] This assay was run in the following two formats with HMC3/HiBit-INPP5D stably transfected cells.
1. Thermal shift: cells were treated with 40 μM compound for 60 min, then heated with a temperature gradient covering 38-52° C. for 3 min before luminescence detection. Mean and standard deviation of control Tm were determined to generate a “Mean+3SD” ΔTm, which was used as threshold to determine a significant ΔTm of compound from control. When the difference of ΔTm of compound treated cells from control Tm>3SD, the compound was considered positive for target engagement, otherwise negative. SD=average standard deviation.
See Martinez et al. (2018) Sci Rep 8: p. 9472; Oh-Hashi et al. (2017) Biochem Biophys Rep 12: pp. 40-45. This assay was run in the following two formats with HMC3/HiBit-INPP5D stably transfected cells.
Thermal shift: cells were treated with 40 μM compound for 60 min, then heated with a temperature gradient covering 38-52° C. for 3 min before luminescence detection. Mean and standard deviation of control Tm were determined to generate a “Mean+3SD” ΔTm, which was used as threshold to determine a significant ΔTm of compound from control. When the difference of ΔTm of compound treated cells from control Tm>3SD, the compound was considered positive for target engagement, otherwise negative. SD=average standard deviation.

SMILES | CETSA SP
Cc1ccccc1COc1cncc(-c2cnn(C3CCNCC3)c2)c1 [Compound 25, 3-[(2-Methylphenyl)methoxy]-5-[1-(piperidin-4-yl)-1H-pyrazol-4-yl]pyridine] | Y
C[C@H](Oc1cncc(-c2cnn(C3CCNCC3)c2)c1)c1ccccc1Cl [Compound 21, (S)-3-(1-(2-chlorophenyl)ethoxy)-5-(1-(piperidin-4-yl)-1H-pyrazol-4-yl)pyridine] | Y
CC(C)(C)OC(=O)N1CCC(n2cc(-c3cncc(OCc4ccccc4F)c3)cn2)CC1 [Compound 2, tert-butyl 4-(4-(5-((2-fluorobenzyl)oxy)pyridin-3-yl)-1H-pyrazol-1-yl)piperidine-1-carboxylate] | N
Clc1ccccc1COc1cncc(-c2ccn(C3CCNCC3)n2)c1 [Compound 26, 3-((2-chlorobenzyl)oxy)-5-(1-(piperidin-4-yl)-1H-pyrazol-3-yl)pyridine] | Y
CC(C)(C)OC(=O)N1CCC(n2cc(-c3cncc(OCc4c(Cl)cccc4Cl)c3)cn2)CC1 [Compound 5, tert-butyl 4-(4-(5-((2,6-dichlorobenzyl)oxy)pyridin-3-yl)-1H-pyrazol-1-yl)piperidine-1-carboxylate] | N
Clc1ccccc1COc1cccc(-c2cnn(C3CCNCC3)c2)c1 [Compound 29, 4-(4-(3-((2-chlorobenzyl)oxy)phenyl)-1H-pyrazol-1-yl)piperidine] | N
CC(C)(C)CCN1CCC(n2cc(-c3cncc(OCc4ccccc4Cl)c3)cn2)CC1 [Compound 15, 3-((2-chlorobenzyl)oxy)-5-(1-(1-(3,3-dimethylbutyl)piperidin-4-yl)-1H-pyrazol-4-yl)pyridine] | N
Cl.Clc1ccc(COc2cncc(-c3cnn(C4CCNCC4)c3)c2)c(Cl)c1 [Compound 10, 3-((2,4-dichlorobenzyl)oxy)-5-(1-(piperidin-4-yl)-1H-pyrazol-4-yl)pyridine hydrochloride] | Y
Clc1ccccc1COc1cncc(-n2ccc(C3CCNCC3)n2)c1 [Compound 27, 3-((2-chlorobenzyl)oxy)-5-(3-(piperidin-4-yl)-1H-pyrazol-1-yl)pyridine] | Y
C[C@@H](Oc1cncc(-c2cnn(C3CCNCC3)c2)c1)c1ccc(Cl)cc1 [Compound 23, (R)-3-(1-(4-chlorophenyl)ethoxy)-5-(1-(piperidin-4-yl)-1H-pyrazol-4-yl)pyridine] | Y
Cc1ccccc1COc1cncc(-c2cnn(C3CCN(C(=O)OC(C)(C)C)CC3)c2)c1 [Compound 3, tert-butyl 4-(4-(5-((2-methylbenzyl)oxy)pyridin-3-yl)-1H-pyrazol-1-yl)piperidine-1-carboxylate] | N
Clc1ccccc1COc1cncc(-n2cc(C3CCNCC3)cn2)c1 [Compound 28, 3-((2-chlorobenzyl)oxy)-5-(4-(piperidin-4-yl)-1H-pyrazol-1-yl)pyridine] | Y
CC(C)(C)OC(=O)N1CCC(n2cc(-c3cncc(OCc4ccccc4Cl)c3)cn2)CC1 [Compound 1, tert-butyl 4-(4-{5-[(2-chlorophenyl)methoxy]pyridin-3-yl}-1H-pyrazol-1-yl)piperidine-1-carboxylate] | N
C[C@@H](Oc1cncc(-c2cnn(C3CCNCC3)c2)c1)c1ccccc1Cl [Compound 22, (R)-3-(1-(2-chlorophenyl)ethoxy)-5-(1-(piperidin-4-yl)-1H-pyrazol-4-yl)pyridine] | Y
CC(C)(C)OC(=O)N1CCC(n2cc(-c3cncc(OCc4ccc(Br)cc4)c3)cn2)CC1 [Compound 7, tert-butyl 4-(4-(5-((4-bromobenzyl)oxy)pyridin-3-yl)-1H-pyrazol-1-yl)piperidine-1-carboxylate] | Y*
Cl.Clc1ccccc1COc1cncc(-c2cnn(C3CCNCC3)c2)c1 [Compound 9, 3-((2-chlorobenzyl)oxy)-5-(1-(piperidin-4-yl)-1H-pyrazol-4-yl)pyridine hydrochloride] | Y
CC(C)(C)CC(=O)N1CCC(n2cc(-c3cncc(OCc4ccccc4Cl)c3)cn2)CC1 [Compound 16, 1-(4-(4-(5-((2-chlorobenzyl)oxy)pyridin-3-yl)-1H-pyrazol-1-yl)piperidin-1-yl)-3,3-dimethylbutan-1-one] | N
CC(C)(C)OC(=O)N1CCC(n2cc(-c3cncc(OCc4ccccc4)c3)cn2)CC1 [Compound 4, tert-butyl 4-(4-(5-(benzyloxy)pyridin-3-yl)-1H-pyrazol-1-yl)piperidine-1-carboxylate] | N
